Data on 5 cell lines can be found in the supplement of paper PMC10307832.

Assay in all cases: relative viability (nuclei count vs DMSO), 5 days (fraction); higher = more cells survive
Compound in the experiment “Trametinib + Pemetrexed”: CC(=O)Nc1cccc(-n2c(=O)n(C3CC3)c(=O)c3c(Nc4ccc(I)cc4F)n(C)c(=O)c(C)c32)c1 [Trametinib] + Nc1nc2[nH]cc(CCc3ccc(C(=O)N[C@@H](CCC(=O)O)C(=O)O)cc3)c2c(=O)[nH]1 [Pemetrexed] (partner 0.2 µM)
An outline of the steps:
(§1)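 Relative viability divides the nuclei count in treated wells by that in vehicle wells. Lung cancer cell lines were seeded in 1536-well plates, dosed by pin tool the next day, and fixed and stained after 5 days in one step with final 0.05% Triton X-100, 1% formaldehyde and 1 ug/ml Hoechst. Dosing was a single drug or a fixed anchor-drug dose plus five library-drug doses (not always all listed) in √10 steps, and values are medians of duplicate plates imaged at 4×.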

Compound in experiment [1]: CN1C=C(C2=CC=CC=C21)/C=C\3/C4=C(C=CC=N4)NC3=O + CS(=O)(=O)N1CCN(Cc2cc3nc(-c4cccc5[nH]ncc45)nc(N4CCOCC4)c3s2)CC1 [Pictilisib] (partner 1 µM)
In a few lines:
as §1

Compound in experiment [2]: CN1C=C(C2=CC=CC=C21)/C=C\3/C4=C(C=CC=N4)NC3=O + CC(=O)c1c(C)c2cnc(Nc3ccc(N4CCNCC4)cn3)nc2n(C2CCCC2)c1=O [Palbociclib] (partner 0.5 µM)
An outline of the steps: as §1

Compound in experiment [3]: CN1C=C(C2=CC=CC=C21)/C=C\3/C4=C(C=CC=N4)NC3=O + CC(C)C[C@H](NC(=O)[C@H](Cc1ccccc1)NC(=O)c1cnccn1)B(O)O [Bortezomib] (partner 0.002 µM)
In a few lines:
as §1

On to PC-3 [JPC-3], for which the relative viability was determined as 0.994 with Trametinib + Pemetrexed (first compound 0.0025 µM); 0.782 with Trametinib + Pemetrexed (first compound 0.007906 µM); 0.773 with Trametinib + Pemetrexed (first compound 0.025 µM); 0.598 with Trametinib + Pemetrexed (first compound 0.25 µM); 0.703 in experiment [1] (first compound 0.02 µM); 0.691 in experiment [1] (first compound 0.06325 µM). Further, the relative viability in experiment [1] (first compound 0.2 µM) is 0.665; in experiment [1] (first compound 0.6325 µM), 0.778; in experiment [1] (first compound 2 µM), 0.758; in experiment [2] (first compound 0.02 µM) it was 0.535; in experiment [2] (first compound 0.06325 µM), 0.521; in experiment [2] (first compound 0.2 µM) it was 0.545. Further, the relative viability in experiment [2] (first compound 0.6325 µM) came out at 0.562; in experiment [2] (first compound 2 µM), 0.515; in experiment [3] (first compound 0.02 µM) it was 0.7; in experiment [3] (first compound 0.06325 µM) it was 0.893; in experiment [3] (first compound 0.2 µM), 0.804; in experiment [3] (first compound 0.6325 µM), 0.838. Also, the relative viability in experiment [3] (first compound 2 µM) was found to be 0.761.

PC-14: the relative viability turned out to be 0.131 in the experiment with Trametinib + Pemetrexed (first compound 0.0025 µM); 0.113 with Trametinib + Pemetrexed (first compound 0.007906 µM); 0.153 in the experiment with Trametinib + Pemetrexed (first compound 0.025 µM); 0.132 with Trametinib + Pemetrexed (first compound 0.07906 µM); 0.141 with Trametinib + Pemetrexed (first compound 0.25 µM); 0.573 in experiment [1] (first compound 0.02 µM). Besides, the relative viability in experiment [1] (first compound 0.06325 µM) was found to be 0.662; in experiment [1] (first compound 0.2 µM), 0.881; in experiment [1] (first compound 0.6325 µM), 0.635; in experiment [1] (first compound 2 µM), 0.691; in experiment [2] (first compound 0.02 µM), 0.539; in experiment [2] (first compound 0.06325 µM), 0.536. In addition, the relative viability in experiment [2] (first compound 0.2 µM) came out at 0.55; in experiment [2] (first compound 0.6325 µM), 0.617; in experiment [2] (first compound 2 µM), 0.545; in experiment [3] (first compound 0.02 µM), 0.826; in experiment [3] (first compound 0.06325 µM), 0.831; in experiment [3] (first compound 0.2 µM) it was 0.981. Besides, the figures for the relative viability in experiment [3] (first compound 0.6325 µM) and in experiment [3] (first compound 2 µM) were 0.898 and 0.991, respectively.

As for RERF-LC-KJ, the relative viability was 0.481 with Trametinib + Pemetrexed (first compound 0.0025 µM); 0.474 in the experiment with Trametinib + Pemetrexed (first compound 0.007906 µM); 0.435 with Trametinib + Pemetrexed (first compound 0.025 µM); 0.494 with Trametinib + Pemetrexed (first compound 0.07906 µM); 0.422 with Trametinib + Pemetrexed (first compound 0.25 µM); 0.748 in experiment [1] (first compound 0.02 µM). Moreover, the relative viability in experiment [1] (first compound 0.06325 µM) is 0.524; in experiment [1] (first compound 0.2 µM), 0.55; in experiment [1] (first compound 0.6325 µM) it was 0.445; in experiment [1] (first compound 2 µM), 0.497; in experiment [2] (first compound 0.02 µM), 0.937; in experiment [2] (first compound 0.06325 µM), 1.07. In addition, the relative viability in experiment [2] (first compound 0.2 µM) came out at 0.988; in experiment [2] (first compound 0.6325 µM), 0.963; in experiment [2] (first compound 2 µM), 1.12; in experiment [3] (first compound 0.02 µM), 1.24; in experiment [3] (first compound 0.06325 µM), 1.11; in experiment [3] (first compound 0.2 µM), 0.994. For the same cell line, the results for the relative viability in experiment [3] (first compound 0.6325 µM) and in experiment [3] (first compound 2 µM) were 0.958 and 0.974, respectively.

Consider SK-LU-1, for which the relative viability is 0.951 in the experiment with Trametinib + Pemetrexed (first compound 0.0025 µM); 0.866 in the experiment with Trametinib + Pemetrexed (first compound 0.007906 µM); 0.822 with Trametinib + Pemetrexed (first compound 0.025 µM); 0.582 with Trametinib + Pemetrexed (first compound 0.07906 µM); 0.353 with Trametinib + Pemetrexed (first compound 0.25 µM); 0.425 in experiment [1] (first compound 0.02 µM). In addition, the relative viability worked out at 0.544 in experiment [1] (first compound 0.06325 µM); 0.63 in experiment [1] (first compound 0.2 µM); 0.472 in experiment [1] (first compound 0.6325 µM); 0.543 in experiment [1] (first compound 2 µM); 0.282 in experiment [2] (first compound 0.02 µM); 0.367 in experiment [2] (first compound 0.06325 µM). In addition, the relative viability in experiment [2] (first compound 0.2 µM) was found to be 0.369; in experiment [2] (first compound 0.6325 µM) it was 0.342; in experiment [2] (first compound 2 µM), 0.399; in experiment [3] (first compound 0.02 µM), 0.806; in experiment [3] (first compound 0.06325 µM), 0.892; in experiment [3] (first compound 0.2 µM) it was 0.908. The relative viability in experiment [3] (first compound 0.6325 µM) is 0.858; in experiment [3] (first compound 2 µM), 1.39.

With SW 1573, the relative viability with Trametinib + Pemetrexed (first compound 0.0025 µM) came out at 0.732; with Trametinib + Pemetrexed (first compound 0.007906 µM), 0.76; with Trametinib + Pemetrexed (first compound 0.025 µM), 0.538; with Trametinib + Pemetrexed (first compound 0.07906 µM), 0.555; with Trametinib + Pemetrexed (first compound 0.25 µM) it was 0.331; in experiment [1] (first compound 0.02 µM), 0.474. In addition, the relative viability in experiment [1] (first compound 0.06325 µM) stood at 0.489; in experiment [1] (first compound 0.2 µM) it was 0.51; in experiment [1] (first compound 0.6325 µM), 0.532; in experiment [1] (first compound 2 µM), 0.521; in experiment [2] (first compound 0.02 µM), 0.319; in experiment [2] (first compound 0.06325 µM), 0.391. Further, the relative viability in experiment [2] (first compound 0.2 µM) stood at 0.426; in experiment [2] (first compound 0.6325 µM), 0.424; in experiment [2] (first compound 2 µM), 0.485; in experiment [3] (first compound 0.02 µM), 1.02; in experiment [3] (first compound 0.06325 µM) it was 0.904; in experiment [3] (first compound 0.2 µM) it was 1.11. Further, the relative viability in experiment [3] (first compound 0.6325 µM) was 1.11; in experiment [3] (first compound 2 µM) it was 1.
